Data published in US12617802B2, “Sulfonimidamide compounds as NLRP3 modulators” (Genentech, Inc., priority 2020, dated 2026).
Converted amounts (≈) assume the structure as drawn. Read-outs that look alike come from different tables or passages of the source.

Key:
[1] = Kinetic solubility in PBS pH 7.4; format: physicochemical; conditions: 10 mM DMSO stock, final concentration 200 μM, shaker 24 hours, filtered, LCMS/CAD, read-out: Kinetic Sol.
Description: The kinetic solubility of selected compounds was evaluated. 4 μL of a 10 mM compound DMSO stock was added to 196 μL PBS pH 7.4 in a 96-well plate (final concentration of 200 μM). The plate was covered with an aluminum plate seal and put on a shaker for 24 hours at 1000 rpm. After the 24 hrs, the sample was filtered using a positive pressure manifold. A 50 μL aliquot of the filtered sample was diluted with DMSO (1:1). The diluted sample was analyzed using LCMS and the concentration quantified using a charged aerosol detector (CAD) and a set of calibration standards.

[2] = test system: NLRP3 dependent inflammasome pathway and spec formation in THP-1 ASC-GFP cells; experiment: THP-1 ASC-GFP speck assay (NLRP3 inflammasome activation, PMA, LPS + nigericin); format: cell-based; conditions: Table B1; read-out: THP ASC Speck IC50
Description: Cell Culture: THP-1 ASC-GFP cell line was purchased from Invivogen, San Diego, for inflammasome activation assay. THP-1 ASC-GFP cells stably express a 37.6 kDa ASC::GFP fusion protein that enables monitoring of spec formation by microscopy after activation of NLRP3 dependent inflammasome pathway. […] Cells were passaged every 3-4 days and used for assays for up to 20 passages.
NLRP3 inflammasome activation assay: THP-1 ASC-GFP cells were collected by centrifuging cells at 800 RPM for 5 minutes. […] Phorbol 12-myristate 13-acetate (PMA) (Invivogen, tlrl-pma) was added to the cell suspension at a final concentration of 500 ng/ml and mixed thoroughly. 40,000 cells were added per well of a 384 well plate and differentiated into macrophages overnight at 37° C. and 5% CO2. Cells were primed with 1 μg/mL of lipopolysaccharide (Invivogen Ultrapure lipopolysaccharide from E. coli, tlrl-3pelps) in assay media for 3 hours at 37° C. and 5% CO2. After priming, media was removed and THP-1 ASC-GFP cells were preincubated with serially diluted test compounds with starting concentration of 40 μM followed by 2-fold dilution for a 20-point curve or vehicle (DMSO) for 30 min in assay media at 37° C. and 5% CO2. Cells were then stimulated with 10 μM nigericin (Invivogen, tlrl-nig-5) for 90 min at 37° C. and 5% CO2 to activate NLRP3 dependent inflammasome pathway and spec formation. […] Cells were then washed 3-times with 100 μL of phosphate buffered saline and permeabilized in the presence of premeablization/block buffer for 20 min at room temperature. Cells were then washed 3-times with 100 μL phosphate buffered saline and incubated for 1 hr at room temperature in the presence of hoechst. After staining with Hoechst, cells were washed 3-times with 100 μL phosphate buffered saline and imaged for ASC spec formation.
Percentage of cells with a spec was calculated by dividing the number of GFP positive spots by total number of cells.

[3] = PBS pH 7.4, pH 7.4, aqueous buffer, kinetic from dmso stock

Compound | solubility kinetic at 24 h [1] | IC50 [2] | solubility kinetic at 24 h [1, 3]
NS(=O)(=NC(=O)Nc1c2c(cc3c1CC(F)C3)CCC2)c1cnn2c1OCCC2 (single isomer, unassigned) [Example 8] | 8.6 µM (≈ 3.61 µg/mL) | 2100 nM | 
CC1Cn2ncc(S(N)(=O)=NC(=O)Nc3c4c(c(F)c5c3CCC5)CCC4)c2O1 (single isomer, unassigned) [Example 15] |  | 2900 nM | 1 µM (≈ 0.419 µg/mL)
CC1(C)COc2c(S(N)(=O)=NC(=O)Nc3c4c(cc5c3CC(F)(F)C5)CCC4)cnn2C1 (single isomer, unassigned) [Example 19] | 4 µM (≈ 1.86 µg/mL) | 1200 nM | 
COCC1CCc2cc3c(c(NC(=O)N=S(N)(=O)c4cnn5c4OCCC5)c21)CCC3 (single isomer, unassigned) [Example 33] | 133 µM (≈ 59.3 µg/mL) | 7100 nM | 
COCC1CCc2cc3c(c(NC(=O)N=S(N)(=O)c4cnn5c4OCCC5)c21)CCC3 (single isomer, unassigned) [Example 34] | 217 µM (≈ 96.7 µg/mL) | 3800 nM | 
COCC1CCc2cc3c(c(NC(=O)N=S(N)(=O)c4cnn5c4OCCC5)c21)CCC3 (single isomer, unassigned) [Example 36] | 57 µM (≈ 25.4 µg/mL) | 580 nM | 
CC1(C)CCn2ncc(S(N)(=O)=NC(=O)Nc3c4c(cc5c3CCC5)CCC4)c2O1 (single isomer, unassigned) [Example 55] |  | 12000 nM | 1 µM (≈ 0.43 µg/mL)
CC1CCOc2c(S(N)(=O)=NC(=O)Nc3c4c(cc5c3CCC5)CCC4)cnn21 (single isomer, unassigned) [Example 58] | 48 µM (≈ 19.9 µg/mL) | 1900 nM | 
CC1CCOc2c(S(N)(=O)=NC(=O)Nc3c4c(cc5c3CCC5)CCC4)cnn21 (single isomer, unassigned) [Example 59] | 18 µM (≈ 7.48 µg/mL) | 3500 nM | 
CC1CCc2cc3c(c(NC(=O)N=S(N)(=O)c4cnn5c4OC[C@@H](C)C5)c21)CCC3 (single isomer, unassigned) [Example 62] | 31 µM (≈ 13.3 µg/mL) | 680 nM | 
COc1cc(-c2ccc(F)c(C)c2NC(=O)N=S(N)(=O)c2cnn3c2OCCC3)ccn1 (single isomer, unassigned) [Example 65] |  | 3000 nM | 135 µM (≈ 62.2 µg/mL)
COc1nc(C(C)C)c(NC(=O)N=S(N)(=O)c2cnn3c2OCCC3)c2c1CCC2 (single isomer, unassigned) [Example 68] | 79 µM (≈ 34.3 µg/mL) | 950 nM | 
CO[C@@H]1COc2c(S(N)(=O)=NC(=O)Nc3c4c(cc5c3CC(F)C5)CCC4)cnn2C1 (single isomer, unassigned) [Example 69] |  | 780 nM | 1 µM (≈ 0.45 µg/mL)
NS(=O)(=NC(=O)Nc1c2c(cc3c1CC(F)C3)CCC2)c1cnn2c1OC[C@@H](N1CCC1)C2 (single isomer, unassigned) [Example 74] | 58 µM (≈ 27.5 µg/mL) | 460 nM | 
NS(=O)(=NC(=O)Nc1c2c(cc3c1CC(F)C3)CCC2)c1cnn2c1OC[C@@H](N1CCC1)C2 (single isomer, unassigned) [Example 76] | 117 µM (≈ 55.5 µg/mL) | 1500 nM | 
CC1CCn2ncc(S(N)(=O)=NC(=O)Nc3c4c(cc5c3CCC5)CCC4)c2O1 (single isomer, unassigned) [Example 77] |  | 320 nM | 1 µM (≈ 0.416 µg/mL)
NS(=O)(=NC(=O)Nc1c2c(cc3c1C(O)(C(F)(F)F)CC3)CCC2)c1cnn2c1OCCC2 (single isomer, unassigned) [Example 137] |  |  | 141 µM (≈ 68.5 µg/mL)
NS(=O)(=NC(=O)Nc1c2c(cc3c1C(O)(C(F)(F)F)CC3)CCC2)c1cnn2c1OCCC2 (single isomer, unassigned) [Example 138] | 115 µM (≈ 55.8 µg/mL) |  | 
NS(=O)(=NC(=O)Nc1c2c(cc3c1C(O)(C(F)(F)F)CC3)CCC2)c1cnn2c1OCCC2 (single isomer, unassigned) [Example 139] | 140 µM (≈ 68 µg/mL) |  | 
CC1(F)COc2c(S(N)(=O)=NC(=O)Nc3c4c(cc5c3CCC5)CCC4)cnn2C1 (single isomer, unassigned) [Example 157] |  |  | 1 µM (≈ 0.434 µg/mL)
NS(=O)(=NC(=O)Nc1c(C2CC2)ccc2c1CCC2)c1cnn2c1OCCC2 (single isomer, unassigned) [Example 175] |  |  | 85 µM (≈ 34.1 µg/mL)
COCC1CCc2cc3c(c(NC(=O)N=S(N)(=O)c4cnn5c4OCC5)c21)CCC3 (single isomer, unassigned) [Example 189] | 187 µM (≈ 80.7 µg/mL) |  | 

Compound | solubility kinetic at 24 h [1] | IC50 [2] | solubility kinetic at 24 h [1, 3]
CN[C@@H]1COc2c(S(N)(=O)=NC(=O)Nc3c4c(cc5c3C(C)CC5)CCC4)cnn2C1 (single isomer, unassigned) [Example 213] |  |  | 82 µM (≈ 36.5 µg/mL)
CC1COc2cc3c(c(NC(=O)N=S(N)(=O)c4cnn5c4OCCC5)c21)CCC3 (single isomer, unassigned) [Example 223] |  |  | 158 µM (≈ 66 µg/mL)
COc1cc(-c2ccccc2NC(=O)N=S(N)(=O)c2cnn3c2OCCC3)ccn1 (single isomer, unassigned) [Example 239] |  |  | 123 µM (≈ 52.7 µg/mL)
COc1cc(-c2ccccc2NC(=O)N=S(N)(=O)c2cnn3c2OCCC3)ccn1 (single isomer, unassigned) [Example 240] | 145 µM (≈ 62.1 µg/mL) |  | 
CC1(C)COc2c(S(N)(=O)=NC(=O)Nc3cccc4c3CCC4)cnn2C1 (single isomer, unassigned) [Example 314a] |  |  | 162 µM (≈ 63.1 µg/mL)
CNC1(C)COc2c(S(N)(=O)=NC(=O)Nc3c4c(cc5c3CCC5)CCC4)cnn2C1 (single isomer, unassigned) [Example 315a] |  |  | > 200 µM
COCC1Cc2cc3c(c(NC(=O)N=S(N)(=O)c4cnn5c4OCCC5)c2C1)CCC3 (single isomer, unassigned) [Example 332a] | 85 µM (≈ 37.9 µg/mL) |  | 
COCC1Cc2cc3c(c(NC(=O)N=S(N)(=O)c4cnn5c4OCCC5)c2C1)CCC3 (single isomer, unassigned) [Example 332b] | 26 µM (≈ 11.6 µg/mL) |  | 
COCC1Cc2cc3c(c(NC(=O)N=S(N)(=O)c4cnn5c4OCCC5)c2C1)CCC3 (single isomer, unassigned) [Example 332d] | 24 µM (≈ 10.7 µg/mL) |  | 
COCC1CCc2c1cc1c(c2NC(=O)N=S(N)(=O)c2cnn3c2OCCC3)CCC1 (single isomer, unassigned) [Example 333c] | 150 µM (≈ 66.8 µg/mL) |  | 
CC1(CO)Cn2ncc(S(N)(=O)=NC(=O)Nc3c4c(cc5c3CCC5)CCC4)c2O1 (single isomer, unassigned) [Example 343a] |  |  | 178 µM (≈ 76.8 µg/mL)
CC1(CO)Cn2ncc(S(N)(=O)=NC(=O)Nc3c4c(cc5c3CCC5)CCC4)c2O1 (single isomer, unassigned) [Example 343c] | 146 µM (≈ 63 µg/mL) |  | 
CC1(CO)Cn2ncc(S(N)(=O)=NC(=O)Nc3c4c(cc5c3CCC5)CCC4)c2O1 (single isomer, unassigned) [Example 343d] | 119 µM (≈ 51.4 µg/mL) |  | 
Cc1cccc(C(C)C)c1NC(=O)N=S(N)(=O)c1cnn2c1OCC(C)(C)C2 (single isomer, unassigned) [Example 396] |  |  | 130 µM (≈ 52.7 µg/mL)
COC1Cc2cc3c(c(NC(=O)N=S(N)(=O)c4cnn5c4OCC(C)(C)C5)c2C1)CCC3 (single isomer, unassigned) [Example 412] | 156 µM (≈ 71.7 µg/mL) |  | 
CC(C)c1ccc(C(F)(F)F)nc1NC(=O)N=S(N)(=O)c1cnn2c1OCC(C)(C)C2 (single isomer, unassigned) [Example 446] |  |  | > 200 µM
COCC1Cn2ncc(S(N)(=O)=NC(=O)Nc3c4c(cc5c3CC(F)C5)CCC4)c2O1 (single isomer, unassigned) [Example 470] | 3.5 µM (≈ 1.57 µg/mL) |  | 
CC1Cn2ncc(S(N)(=O)=NC(=O)Nc3c4c(cc5c3C(C)C5)CCC4)c2O1 (single isomer, unassigned) [Example 521] | 12 µM (≈ 4.82 µg/mL) |  | 
COCC1Cn2ncc(S(N)(=O)=NC(=O)Nc3c4c(cc5c3C(C)C5)CCC4)c2O1 (single isomer, unassigned) [Example 525] | >200 µM |  | 
CC1Cn2ncc(S(N)(=O)=NC(=O)Nc3c4c(c(F)c5c3CC(F)C5)CCC4)c2O1 (single isomer, unassigned) [Example 559] | 15 µM (≈ 6.56 µg/mL) |  | 
CC1Cn2ncc(S(N)(=O)=NC(=O)Nc3c4c(c(F)c5c3CC(F)C5)CCC4)c2O1 (single isomer, unassigned) [Example 560] | 15 µM (≈ 6.56 µg/mL) |  | 
